Assay results taken from patent US12577469B2, “Compound, composition, cured product, optically anisotropic body, optical element, and light guide element” (FUJIFILM Corporation, priority 2021, dated 2026).

What was measured:
[1] = Evaluation of solubility in cyclopentanone (precipitation concentration); assay type: physicochemical; settings: precipitation concentration in cyclopentanone at room temperature (25° C.)
[2] = Evaluation of liquid crystallinity of compound (hot stage, polarization microscope); assay type: physicochemical; parameters: key: A case of having liquid crystallinity was evaluated as A; a case of having no liquid crystallinity was evaluated as B; settings: compound alone, heated on hot stage
Experimental: Each compound was heated on a hot stage and observed with a polarization microscope, and the phase transition temperature was measured to evaluate the presence or absence of liquid crystallinity. A case of having liquid crystallinity was evaluated as A, and a case of having no liquid crystallinity was evaluated as B. The results are shown in the column of “Liquid crystallinity” of “Compound 2” in Table 1.

Structure (SMILES) | Compound 2 Solubility [1] | Compound 2 Liquid crystallinity [2]
CC(=O)OCCc1ccc(C#Cc2ccc(OCc3ccc(C#Cc4ccc(COc5ccc(C#Cc6ccc(CCOC(C)=O)cc6)cc5C)cc4)cc3)c(C)c2)cc1 [Compound B-1] | B (the solubility in a case where the precipitation concentration was 5% by mass or less was evaluated as B) | A
C=CC(=O)OCCSc1ccc(C#Cc2ccc(OCc3ccc(C#Cc4ccc(COc5ccc(C#Cc6ccc(SCCOC(=O)C=C)cc6)cc5C(=O)OC)cc4)cc3)c(C(=O)OC)c2)cc1 [Compound B-4] | A (the solubility in a case where the precipitation concentration was more than 5% by mass was evaluated as A) | A
C=CC(=O)OCCSc1ccc(C#Cc2ccc(OCc3ccc(C#Cc4ccc(COc5ccc(C#Cc6ccc(SCCOC(=O)C=C)cc6)cc5C)cc4)cc3)c(C)c2)cc1 [Compound B-3] | B (the solubility in a case where the precipitation concentration was 5% by mass or less was evaluated as B) | A
C=CC(=O)OCCc1ccc(C#Cc2ccc(OCc3ccc(C#Cc4ccc(COc5ccc(C#Cc6ccc(CCOC(=O)C=C)cc6)cc5C)cc4)cc3)c(C)c2)cc1 [Compound B-2] | B (the solubility in a case where the precipitation concentration was 5% by mass or less was evaluated as B) | A
